According to patent publication US20080292584A1 (priority 2005, published 2008):
Several values for one entry are separate records, joined by “and”; a condition that tells them apart may be missing. Equal values may be shown once. Read-outs that look alike come from different tables or passages of the source.

Experiments:
CYP1A2 [1] = assay: Induction/inhibition of CYP1A2 activity in cryopreserved human hepatocytes after 48 h exposure (phenacetin)
Source text: Hepatocytes from three human donors were obtained from a cryopreserved hepatocyte bank (In Vitro Technologies, Inc., USA). After thawing, viable hepatocytes were transferred to collagen-coated 48-well plates for attachment in plating medium (DMEM stock (Dulbecco's modified Eagle's medium, supplemented with bovine serum albumin, fructose, N-(2-hydroxyethyl)piperazine-N′-(2-ethanesulfonate) (HEPES), and sodium bicarbonate), supplemented with antibiotics, bovine serum, hydrocortisone, insulin and minimum essential medium (MEM) nonessential amino acids). After attachment to the collagen matrix, plating medium was replaced with sandwich medium (plating medium supplemented with VITROGEN) and incubated until use.
The supplemented KHB was replaced with 150 μL supplemented KHB containing the appropriate isoform-selective substrate and incubated for 4 hrs prior to termination by adding 150 μL ice-cold methanol, except for the CYP2C8 incubations which were terminated by adding 150 μL acetonitrile.
All substrates were dissolved in acetonitrile.
Replicate trials and controls were performed. […] Additionally, reference control samples were included to evaluate inducibility of CYP2B6, CYP2C9, and CYP2C19 in the test system.
Mean specific activity values with associated p-values≦0.05 were deemed to be statistically significant.

CYP1A2 [2] = target: T1, CYP1A2 (Homo sapiens, UniProt P05177); conditions: both, pH 7.4; for Mean Conc.: 60 min; for % Turnover Mean: microsomes, 1 h
T1 sequence (P05177 1-516): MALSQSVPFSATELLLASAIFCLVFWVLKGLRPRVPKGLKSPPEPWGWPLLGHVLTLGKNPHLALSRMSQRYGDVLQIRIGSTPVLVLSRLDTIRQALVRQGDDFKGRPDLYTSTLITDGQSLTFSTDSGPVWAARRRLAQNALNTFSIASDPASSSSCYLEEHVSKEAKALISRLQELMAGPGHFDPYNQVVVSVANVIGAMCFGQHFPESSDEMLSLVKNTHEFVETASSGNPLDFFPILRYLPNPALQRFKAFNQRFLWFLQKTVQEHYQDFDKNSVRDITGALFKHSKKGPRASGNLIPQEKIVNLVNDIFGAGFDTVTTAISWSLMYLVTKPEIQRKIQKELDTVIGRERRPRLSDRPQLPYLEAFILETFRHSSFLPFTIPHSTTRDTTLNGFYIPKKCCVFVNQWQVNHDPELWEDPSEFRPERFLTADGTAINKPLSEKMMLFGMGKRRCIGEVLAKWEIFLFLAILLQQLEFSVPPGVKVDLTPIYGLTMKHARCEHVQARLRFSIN
Method: Human liver microsomes pooled from 15 individuals (male and female) (Pool HMMC-PL020; CellzDirect, Inc., In Vitro Products and Services Division) were used in some experiments of this study.
% Turnover=100−{[TA(final)]/[mean of TA(0 min)]}×100,
% Inhibition of Turnover=100{1−([TA(0 min)]−[TA(final-inhibitor)])/([TA(0 min)]−[TA(final-no inhibitor)])}.
The inhibitors or vehicle control were incubated with the pooled human liver microsomes (1 mg/mL) and NADPH (1 mM) in 0.1 M phosphate buffer, pH 7.4. […] Incubations were conducted in triplicate and terminated by addition of organic solvent. Samples were extracted and analyzed by LC-MS/MS as described above.

human CYP1A2 = target: T2, human CYP1A2 (Homo sapiens, UniProt P05177); assay: Metabolism of metaxalone by expressed recombinant human CYP1A2 at 5 or 20 pmol (Example 4, LC-MS/MS); conditions: for percent turnover / % Turnover Mean / [metaxalone] Mean / % Turnover % / [metaxalone]: 60 min; for % Turnover % / [metaxalone]: single replicates, listed as Metaxalone
T2 sequence (P05177 2-516 limits assumed): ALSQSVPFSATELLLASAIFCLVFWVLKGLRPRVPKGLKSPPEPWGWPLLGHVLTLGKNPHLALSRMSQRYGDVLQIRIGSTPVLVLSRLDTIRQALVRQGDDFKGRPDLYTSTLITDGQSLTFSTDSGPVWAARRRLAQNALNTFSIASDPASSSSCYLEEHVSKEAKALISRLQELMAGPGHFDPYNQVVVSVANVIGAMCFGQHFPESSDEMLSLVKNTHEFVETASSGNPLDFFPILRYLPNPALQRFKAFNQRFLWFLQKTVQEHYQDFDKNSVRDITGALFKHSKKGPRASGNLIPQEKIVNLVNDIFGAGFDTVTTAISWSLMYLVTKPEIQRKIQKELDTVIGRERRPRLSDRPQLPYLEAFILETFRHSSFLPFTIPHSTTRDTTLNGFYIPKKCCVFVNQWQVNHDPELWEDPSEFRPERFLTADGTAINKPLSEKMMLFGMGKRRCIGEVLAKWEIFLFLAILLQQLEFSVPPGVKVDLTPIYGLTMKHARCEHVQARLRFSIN

CYP2A6 = target: T3, CYP2A6 (Homo sapiens, UniProt P11509); assay: Metabolism of metaxalone by expressed recombinant human CYP2A6 at 5 or 20 pmol (Example 4); conditions: for % Turnover Mean / [metaxalone] Mean / % Turnover % / [metaxalone]: 60 min; for % Turnover % / [metaxalone]: single replicates
T3 sequence (P11509 1-494): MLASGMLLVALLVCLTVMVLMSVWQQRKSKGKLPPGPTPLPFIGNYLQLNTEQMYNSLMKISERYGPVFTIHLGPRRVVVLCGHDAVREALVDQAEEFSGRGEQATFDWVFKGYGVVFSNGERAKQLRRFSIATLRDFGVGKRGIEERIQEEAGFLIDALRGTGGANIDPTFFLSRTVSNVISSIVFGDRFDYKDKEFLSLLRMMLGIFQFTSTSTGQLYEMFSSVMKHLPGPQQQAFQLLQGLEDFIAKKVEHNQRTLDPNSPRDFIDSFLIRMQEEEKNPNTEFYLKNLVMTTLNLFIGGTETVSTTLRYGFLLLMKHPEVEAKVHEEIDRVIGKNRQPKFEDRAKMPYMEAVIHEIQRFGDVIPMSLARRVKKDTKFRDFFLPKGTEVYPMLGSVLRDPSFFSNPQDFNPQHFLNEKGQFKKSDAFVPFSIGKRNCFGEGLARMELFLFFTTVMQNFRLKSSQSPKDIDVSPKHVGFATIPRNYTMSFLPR

[3] = 0.75 μM metaxalone, 20 pmol cyp
[4] = 0.75 μM metaxalone, 5 pmol cyp, listed as Metaxalone
[5] = 0.75 μM metaxalone, 20 pmol cyp, listed as Metaxalone
[6] = 7.5 μM metaxalone, 5 pmol cyp, listed as Metaxalone
[7] = 7.5 μM metaxalone, 20 pmol cyp, listed as Metaxalone

Cc1cc(C)cc(OCC2CNC(=O)O2)c1 (centres unmarked) [metaxalone, 5-[(3,5-dimethylphenoxy)methyl]-2-oxazolidinone]
Inducer/Inhibitor (CYP1A2 [1]): +
Percent of VC (CYP1A2 [1]; Donor 2, Metaxalone 40 μM): 197%
Acetaminophen formation Adjusted Mean ± SD (CYP1A2 [1]; human, 4 h, 40 μM): 0.0589 ± 0.00795 µM
Acetaminophen formation Adjusted Mean ± SD (CYP1A2 [1]; human, 48 h, 4 μM): 0.0443 ± 0.000214 µM
effect on CYP1A2 activity (CYP1A2 [1]; human, hepatocytes, 48 h, 40 μM): induced CYP1A2 activity
Mean Conc. (CYP1A2 [2]; 0.75 μM): 0.797 µM
Mean Conc. (CYP1A2 [2]; 7.5 μM): 8.11 µM
% Turnover Mean (CYP1A2 [2]; 0.75 μM): −3.29%
% Turnover Mean (CYP1A2 [2]; 7.5 μM): 4.77%
percent turnover (human CYP1A2; 0.75 μM metaxalone, 5 pmol CYP450): 9.2%
% Turnover Mean (human CYP1A2; 0.75 μM metaxalone, 5 pmol cyp): 9.2%
[metaxalone] Mean (human CYP1A2; 0.75 μM metaxalone, 5 pmol cyp): 0.719 µM
% Turnover % (human CYP1A2; 0.75 μM metaxalone, 5 pmol cyp): 17.5% and 6.2% and 3.9%
[metaxalone] (human CYP1A2; 0.75 μM metaxalone, 5 pmol cyp): 0.653 µM and 0.742 µM and 0.761 µM
percent turnover (human CYP1A2; 0.75 μM metaxalone, 20 pmol CYP450): 34.8%
% Turnover Mean (human CYP1A2; [3]): 34.8%
[metaxalone] Mean (human CYP1A2; [3]): 0.516 µM
% Turnover % (human CYP1A2; [3]): 31.7% and 35.5% and 37.3%
[metaxalone] (human CYP1A2; [3]): 0.540 µM and 0.511 µM and 0.496 µM
percent turnover (human CYP1A2; 7.5 μM metaxalone, 5 pmol CYP450): 10.0%
% Turnover Mean (human CYP1A2; 7.5 μM metaxalone, 5 pmol cyp): 10.0%
[metaxalone] Mean (human CYP1A2; 7.5 μM metaxalone, 5 pmol cyp): 7.60 µM
% Turnover % (human CYP1A2; 7.5 μM metaxalone, 5 pmol cyp): 14.3% and 5.7%
[metaxalone] (human CYP1A2; 7.5 μM metaxalone, 5 pmol cyp): 7.24 µM and 7.97 µM
percent turnover (human CYP1A2; 7.5 μM metaxalone, 20 pmol CYP450): 30.4%
% Turnover Mean (human CYP1A2; 7.5 μM metaxalone, 20 pmol cyp): 30.4%
[metaxalone] Mean (human CYP1A2; 7.5 μM metaxalone, 20 pmol cyp): 5.88 µM
% Turnover % (human CYP1A2; 7.5 μM metaxalone, 20 pmol cyp): 33.3% and 32.3% and 25.5%
[metaxalone] (human CYP1A2; 7.5 μM metaxalone, 20 pmol cyp): 5.63 µM and 5.72 µM and 6.29 µM
Substrate (human CYP1A2; CYP isozyme 1A2, summary of studies): +
% Turnover Mean (CYP2A6; 0.75 μM metaxalone, 5 pmol cyp): 0.14%
[metaxalone] Mean (CYP2A6; 0.75 μM metaxalone, 5 pmol cyp): 0.790 µM
% Turnover % (CYP2A6; 0.75 μM metaxalone, 5 pmol cyp): −4.1%
% Turnover % (CYP2A6; [4]): 1.8% and 2.8%
[metaxalone] (CYP2A6; [4]): 0.777 µM and 0.824 µM and 0.769 µM
% Turnover Mean (CYP2A6; [3]): 0.91%
[metaxalone] Mean (CYP2A6; [3]): 0.784 µM
% Turnover % (CYP2A6; [3]): −5.7%
% Turnover % (CYP2A6; [5]): 3.7% and 4.8%
[metaxalone] (CYP2A6; [5]): 0.837 µM and 0.762 µM and 0.753 µM
% Turnover Mean (CYP2A6; 7.5 μM metaxalone, 5 pmol cyp): 3.7%
[metaxalone] Mean (CYP2A6; 7.5 μM metaxalone, 5 pmol cyp): 8.14 µM
% Turnover % (CYP2A6; 7.5 μM metaxalone, 5 pmol cyp): −2.3%
% Turnover % (CYP2A6; [6]): 9.0% and 4.3%
[metaxalone] (CYP2A6; [6]): 7.69 µM and 8.08 µM and 8.64 µM
% Turnover Mean (CYP2A6; 7.5 μM metaxalone, 20 pmol cyp): −1.8%
[metaxalone] Mean (CYP2A6; 7.5 μM metaxalone, 20 pmol cyp): 8.59 µM
% Turnover % (CYP2A6; [7]): −1.6% and 6.1% and −9.8%
[metaxalone] (CYP2A6; [7]): 8.58 µM and 7.93 µM and 9.27 µM
Substrate (CYP2A6; CYP isozyme 2A6, summary of studies): 0
